Reference: US20220378809A1, “SYNTHETIC COMPOSITION FOR BALANCING THE BILE ACID PROFILE IN THE INTESTINE” (GLYCOM A/S, priority 2019, published 2022)

Legend:
[1] = tested on: colonic microbiota; assay: In vitro intestinal system simulating the colon of a human infected with C. difficile, after Vancomycin treatment; conditions: end of washout period
Text: An in vitro intestinal system is used to simulate the colon region in a human infected with C. difficile. The system is inoculated with fresh faecal samples from a healthy individual aged >65 years. The system is run for two weeks as a set up period to stabilise the system. The system is fed daily with a feed solution and with bile acids (primarily taurocholic acid and glycocholic acid). Afterwards, two different interventions are run in parallel for 4 weeks. • Intervention: daily addition of 2′-FL and LNnT (ratio 4:1 by weight) plus an antibiotic (Vancomycin) for seven days, followed by 2′-FL and LNnT (ratio 4:1 by weight) without antibiotic for the next 3 weeks (wash out period), • Control: an antibiotic (Vancomycin) for seven days, followed by no intervention for the next 3 weeks (wash out period). During the antibiotic treatment and washout periods, both the intervention and the control receive the same daily feed including bile acids. At three time points (end of set up period, end of antibiotic treatment, and end of wash out period), the microbiota community and bile acids are measured using 16S sequencing and HPLC-UV method, respectively. The in vitro intestinal system is run as in example 1 except that the intervention is a daily addition of 2′-FL plus an antibiotic (Vancomycin) for seven days, followed by 2′-FL alone for the next 3 weeks (wash out period). The control is as in example b 1. • Control: an antibiotic (Vancomycin) for seven days, followed by no intervention for the next 3 weeks (wash out period).

[2] = tested on: dextran sodium sulphate-induced colitis; conditions: mice; daily oral administration; cited from earlier work
[3] = tested on: intestinal cells; conditions: cited from earlier work

## 2′-fucosyllactose [2′-FL]
[1]
  colonic bile acid metabolism: re-established
[1]; 16S sequencing
  restoration of the microbiota: restored
[1]; HPLC-UV
  secondary bile acids: presence of the secondary bile acid deoxycholic acid (DCA)
[1]; HPLC-UV, versus Vancomycin-only control
  primary bile acids (cholic acid (CA) and glyco-chenodeoxycholic acid (GCDCA)): decrease in primary bile acids

## C[C@H](CCC(=O)NCCS(=O)(=O)O)[C@H]1CC[C@H]2[C@@H]3[C@@H](O)C[C@@H]4C[C@H](O)CC[C@]4(C)[C@H]3CC[C@]12C [TUDCA, tauroursodeoxycholic acid]
[2]
  severity of dextran sodium sulphate-induced colitis: equally lowered the severity

## C[C@H](CCC(=O)O)[C@H]1CC[C@H]2[C@@H]3[C@H](O)C[C@@H]4C[C@H](O)CC[C@]4(C)[C@H]3CC[C@]12C [CDCA, chenodeoxycholic acid]
[3]
  permeability of intestinal cells: increased the permeability
  release of proinflammatory cytokines: increased

## C[C@H](CCC(=O)NCC(=O)O)[C@H]1CC[C@H]2[C@@H]3[C@@H](O)C[C@@H]4C[C@H](O)CC[C@]4(C)[C@H]3CC[C@]12C [GUDCA, glycoursodeoxycholic acid]
[2]
  severity of dextran sodium sulphate-induced colitis: equally lowered the severity
